Assays:
[1] = test system: Leishmania donovani; experiment: Antileishmanial activity against promastigote forms of Leishmania donovani MHOM/ET/1967/HU3 assessed as reduction in cell viability after 72 hrs by MTT assay; type: functional, organism-based; details: MHOM/ET/1967/HU3, 72 h
[2] = Selectivity index, ratio of HC50 for human red blood cells to IC50 for promastigote forms of Leishmania donovani MHOM/ET/1967/HU3; type: toxicity; details: read-out: Selectivity Index
[3] = test system: Leishmania donovani; experiment: Potency index, ratio of Amphotericin B IC50 to compound IC50 for promastigote forms of Leishmania donovani MHOM/ET/1967/HU3; type: functional
[4] = Hemolytic activity in human red blood cells; type: cell-based, Erythrocyte; details: red blood cells (erythrocytes)

SMILES | IC50 [1] [µM] | selectivity ratio [2] | Ratio IC50 [3] | HC50 [4] [µM]
C=C(C(=O)OCCOC(=O)C(=C)C(O)c1ccc([N+](=O)[O-])cc1)C(O)c1ccc([N+](=O)[O-])cc1 (centres undefined) | 44.6 | – | – | –
C=C(C(=O)OC)C(O)c1ccccc1 (centres undefined) | 953 | – | – | –
C=C(C(=O)OC)C(O)c1ccccc1[N+](=O)[O-] (centres undefined) | 690 | – | – | –
C=C(C(=O)OC)C(O)c1ccc2ccccc2c1 (centres undefined) | 185 | – | – | –
C=C(C(=O)OCCOC(=O)C(=C)C(O)c1ccc2ccccc2c1)C(O)c1ccc2ccccc2c1 (centres undefined) | 39 | – | – | –
C=C(C(=O)OC)C(O)c1ccc(Cl)cc1 (centres undefined) | 202 | – | – | –
C=C(C(=O)OC)C(O)c1cccc([N+](=O)[O-])c1 (centres undefined) | 161 | – | – | –
C=C(C(=O)OCCOC(=O)C(=C)C(O)c1cccc([N+](=O)[O-])c1)C(O)c1cccc([N+](=O)[O-])c1 (centres undefined) | 43 | – | – | –
C=C(C(=O)OC)C(O)c1ccc(Br)cc1 (centres undefined) | 197 | – | – | –
C=C(C(=O)OCCOC(=O)C(=C)C(O)c1ccc(Br)cc1)C(O)c1ccc(Br)cc1 (centres undefined) | 0.5 | > 400 | 1.24 | > 200
C=C(C(=O)OCCOC(=O)C(=C)C(O)c1ccccc1)C(O)c1ccccc1 (centres undefined) | 126 | – | – | –
C=C(C(=O)OCCOC(=O)C(=C)C(O)c1ccccc1[N+](=O)[O-])C(O)c1ccccc1[N+](=O)[O-] (centres undefined) | 24.8 | – | – | –
C[C@@H]1[C@H](O)[C@@H](C)/C=C/C=C/C=C/C=C/C=C/C=C/C=C/[C@H](O[C@@H]2O[C@H](C)[C@@H](O)[C@H](N)[C@@H]2O)C[C@@H]2O[C@](O)(C[C@@H](O)C[C@@H](O)[C@H](O)CC[C@@H](O)C[C@@H](O)CC(=O)O[C@H]1C)C[C@H](O)[C@H]2C(=O)O [AMPHOTERICIN B] | 0.62 | 18.7 | – | 11.6
C=C(C(=O)OC)C(O)c1ccc([N+](=O)[O-])cc1 (centres undefined) | 165 | – | – | –
C=C(C(=O)OCCOC(=O)C(=C)C(O)c1ccc(F)cc1)C(O)c1ccc(F)cc1 (centres undefined) | 42.4 | – | – | –
C=C(C(=O)OC)C(O)c1ccc(F)cc1 (centres undefined) | 610 | – | – | –
C=C(C(=O)OCCOC(=O)C(=C)C(O)c1ccc(Cl)cc1)C(O)c1ccc(Cl)cc1 (centres undefined) | 10.5 | > 19.1 | – | > 200
